The values that follow come from patent publication US11484593B2, “Atropisomers of halogenated tetraphenylbacteriochlorins and chlorins and their use in photodynamic therapy” (LUZITIN, S.A., priority 2015, dated 2022).

Data set [1] is described as follows: Absorption spectra / molar absorption coefficients (Beer-Lambert) in ethanol. It counts as physicochemical. Particulars: for ε/10^3: infrared absorption maximum.
A short description of data set [2]: Triplet lifetimes by nanosecond laser flash photolysis, excitation at 355 nm. The data set is classed as physicochemical. Conditions: triplet lifetime in aerated ethanol.
Data set [3] in a line: Singlet oxygen quantum yield in ethanol (phosphorescence at 1270 nm, phenalenone reference). The data set is classed as physicochemical. Particulars: aerated ethanol.
For data set [4], the system named is HT-29 (human colon carcinoma) cells. Nature of the data set: In vitro phototoxicity, resazurin cell viability after irradiation at 749 nm. It counts as cell-based. Conditions: light dose 1 J/cm^2 at 749 nm, 24 h incubation.
The subject of data set [5] is CT26 (mouse colon carcinoma) cells. The data set is described as above. The data set is classed as cell-based.
The conditions of data set [6]: photodecomposition quantum yield, aerated methanol:PBS (3:2), 749 nm, 640 mW.
For a further data set, the system named is subcutaneous CT26 tumor. Nature of the data set: Vascular-PDT of subcutaneous CT26 tumor in BALB/c mice with enriched atropisomer compositions (Example 7). It counts as in vivo. Conditions: nominal 0.7 mg/kg i.v., 15 min later 55 J on 1.33 cm^2.
For data set [7] the following is noted: in ethanol, reference; cited from earlier work.
Where [8] appears, read: light dose 1 J/cm^2 at 749 nm, extrapolated from non-linear regression curve.
Where [9] appears, read: light dose 1 J/cm^2 at 749 nm, 24 h incubation.

In data set [1], `CNS(=O)(=O)c1ccc(F)c(-c2c3nc(c(-c4c(F)ccc(S(=O)(=O)NC)c4F)c4ccc([nH]4)c(-c4c(F)ccc(S(=O)(=O)NC)c4F)c4nc(c(-c5c(F)ccc(S(=O)(=O)NC)c5F)c5ccc2[nH]5)CC4)CC3)c1F` (single isomer, unassigned) [LUZ11-A] came in with a λmax of 743 nm. Further, the “ε/10^3” value in data set [1] turned out to be 126 M^−1 cm^−1. Further, the “τT (air)” value in data set [2] is reported as 257 ± 7 ns. Further, in data set [3], the ΦΔ is 0.39. In addition, the IC50 in data set [4] is 0.343 µM; in data set [5] (light dose 1 J/cm^2, Table 1, extrapolated from non-linear regression curve), 67.3 µM; in data set [5] (setting [8]), 67.3 µM. Besides, the IC90 in data set [4] was 1.01 µM; in data set [5] (setting [8]), 2830 µM. For the same molecule, in data set [6], the “ΦPD/10^−6” value was 15.
In turn, `CNS(=O)(=O)c1ccc(F)c(-c2c3nc(c(-c4c(F)ccc(S(=O)(=O)NC)c4F)c4ccc([nH]4)c(-c4c(F)ccc(S(=O)(=O)NC)c4F)c4nc(c(-c5c(F)ccc(S(=O)(=O)NC)c5F)c5ccc2[nH]5)CC4)CC3)c1F` (single isomer, unassigned) [LUZ11-B] yielded a λmax in data set [1] of 743 nm. Moreover, the “ε/10^3” value in data set [1] stood at 137 M^−1 cm^−1. For the same molecule, the “τT (air)” value in data set [2] was found to be 296 ± 33 ns. In data set [3], this molecule showed a ΦΔ of 0.35. In addition, the IC50 in data set [4] came out at 0.178 µM; in data set [5] (light dose 1 J/cm^2, Table 1) it was 1.46 µM; in data set [5] (setting [9]) it was 1.46 µM. Further, the IC90 in data set [4] was 0.433 µM; in data set [5] (setting [8]) it was 7.53 µM. The “ΦPD/10^−6” value in data set [6] is given as 15.
Regarding `CNS(=O)(=O)c1ccc(F)c(-c2c3nc(c(-c4c(F)ccc(S(=O)(=O)NC)c4F)c4ccc([nH]4)c(-c4c(F)ccc(S(=O)(=O)NC)c4F)c4nc(c(-c5c(F)ccc(S(=O)(=O)NC)c5F)c5ccc2[nH]5)CC4)CC3)c1F` [LUZ11], in data set [4], the IC50 was determined as 0.367 µM and it took 0.588 µM to reach the 90% level (IC90). For the same molecule, in data set [5] (setting [9]), the IC50 was 0.871 µM and the 90% effect level (IC90) was put at 4.31 µM. In the data set on subcutaneous CT26 tumor, the “long-term cures (tumor-free 60 days after the treatment)” value is “not possible to obtain long-term cures” and the median survival time was 20 days.
`O=C1C=Cc2cccc3cccc1c23` [phenalenone]: the “singlet oxygen quantum yield ΦΔ (literature value)” value in data set [7] is given as 0.95.
`CNS(=O)(=O)c1ccc(F)c(-c2c3nc(c(-c4c(F)ccc(S(=O)(=O)NC)c4F)c4ccc([nH]4)c(-c4c(F)ccc(S(=O)(=O)NC)c4F)c4nc(c(-c5c(F)ccc(S(=O)(=O)NC)c5F)c5ccc2[nH]5)CC4)CC3)c1F` [sample X]: in the data set on subcutaneous CT26 tumor, the “long-term cures (tumor-free 60 days after the treatment)” value was “absence of long-term cures”, the median survival time was 18 days and the “median survival time shorter than with the LUZ11 sample” value amounted to 2 days.
